From US7153685B2 (The Board of Trustees of the University of Illinois, priority 2002, dated 2006)

Legend:
[1] = system: ER3M-VP16 fusion proteins (N-79, N-129, C-79, C-129); experiment: ATL8/PAL-LUC transactivation with CMV-driven ER3M-VP16 fusion proteins in HepG2 cells; assay type: cell-based, human; details: 10 nM ICI 182,780, no OHT
Description: These fragments were digested with KpnI and BamHI and then purified from agarose gels. […] To create C-129, this ER fragment was digested with XbaI and KpnI and then cloned together with the DNA fragment containing 129 amino acids of VP16 into 5.9 kb vector generated by digestion of CMV-hER with XbaI and BamHI. The same strategy was adopted to create C-79 using the DNA fragment containing 79 amino acids of VP16. Therefore, the expression of these chimeras is driven by the same CMV promoter as that of ER-3M. […] The amplified PCR product was digested with NcoI and NotI. […] This fragment and the NcoI/NotI PCR fragment were then inserted together into the 4.3 kb vector, pGL3-ATL8/PAL-LUC, which was created by digesting ATL8/PAL-LUC completely with NcoI and partially with XbaI so that the luciferase gene was replaced by N-79.

wild type hERα = molecular target: T1, wild type hERα (Homo sapiens, UniProt P03372, G400V); experiment: Ligand-dependent luciferase reporter transactivation in transfected HepG2 cells; details: for MOX-dependent increase in luciferase activity: ATL2/cERE-LUC, 10 nM MOX
T1 sequence (P03372 1-595 G400V): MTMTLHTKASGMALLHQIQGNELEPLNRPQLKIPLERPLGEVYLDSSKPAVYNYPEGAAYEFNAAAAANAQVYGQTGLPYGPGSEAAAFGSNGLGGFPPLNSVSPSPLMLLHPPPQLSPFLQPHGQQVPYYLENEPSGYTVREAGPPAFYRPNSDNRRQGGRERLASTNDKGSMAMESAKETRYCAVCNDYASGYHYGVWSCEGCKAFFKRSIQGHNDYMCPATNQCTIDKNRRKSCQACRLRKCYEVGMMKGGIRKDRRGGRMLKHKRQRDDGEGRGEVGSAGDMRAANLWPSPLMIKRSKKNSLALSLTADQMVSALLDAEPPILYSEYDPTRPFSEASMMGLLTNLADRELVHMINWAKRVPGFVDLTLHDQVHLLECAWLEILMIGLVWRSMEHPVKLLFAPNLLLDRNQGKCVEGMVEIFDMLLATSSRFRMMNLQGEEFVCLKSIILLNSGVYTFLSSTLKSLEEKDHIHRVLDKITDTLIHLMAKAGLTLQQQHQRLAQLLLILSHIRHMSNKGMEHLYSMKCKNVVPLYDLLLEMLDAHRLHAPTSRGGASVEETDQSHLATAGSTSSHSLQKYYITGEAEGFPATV
Protocol: HepG2 human hepatoma cells were maintained in a humidified 5% CO2 incubator at 37° C. in Dulbecco's Modified Eagle's Medium (DMEM; Sigma; St. Louis, Mo.) supplemented with 10 % charcoal-dextran-stripped fetal bovine serum (CD-FBS; Atlanta Biologicals, Inc; Atlanta, Ga.), 50,000 U/l of penicillin, and 50 mg/liter streptomycin (Life Technologies, Inc.). MCF-7 cells were routinely maintained in DMEM/Nutrient Mixture F-12 (DMEM/F12) supplemented with 10% heat-inactived FBS, 50,000 U/l of penicillin, and 50 mg/l streptomycin. CHO-S cells were maintained in DMEM/F12 supplemented with 10% heat-inactivated FBS (CD-FBS when ERs were being expressed) or 10% CD-new born calf serum (CD-NBCS, when reporter activity by different ligands were measured), 29.2 mg/l L-glutamine (Sigma), and 50,000 U/l of penicillin and 50 mg/l streptomycin.
Transient transfections in HepG2 cells was accomplished using calcium phosphate co-precipitation (Ausubel et al., 1987). Briefly, cells were plated in 12-well microplates at a density of 1×10^5 cells/well. The next day, the medium was replaced, and 2–6 hours later, precipitated calcium phosphate:DNA co-crystals were added. After 12–16 hours, the cells were shocked for 3 minutes with 20% glycerol in Tris-buffered saline, pH 7.4. Fresh medium and (if any) hormones were added. For MCF-7 and 231 cells, transient transfection was carried out using the Tfx™-20 reagent (Promega; Madison, Wis.) according to the manufacturer's direction with minor changes. Briefly, 1×10^5 cells were plated in each well of 12-well microplates one day before transfection. A 1:3 ratio of DNA to lipid was used. The DMEM/F12 medium without serum was used as carrier for the DNA-lipid mixture. After 1 hour incubation with the DNA-lipid-DMEM/F12 at 37° C., the cells were transferred to fresh DMEM/F12 supplemented with 10% CD-FBS, 50,000 U/I of penicillin, 50 mg/l streptomycin and hormones. Transfection on CHO—S cells was described as above for the preparation of ERs extraction except the medium contained 10% CD-NBCS. The cells subjected to either transfection method were harvested 48 hours post-transfection. Reporter assays were performed by lysing the cells in situ with 250 μl of passive lysis buffer (Promega). Activity was determined using the dual luciferase assay protocol according to the manufacturer's directions (Promega) on a Monolight 2010 luminometer (Analytical Luminescence, San Diego, Calif.)
Transient transfections of HepG2 cells were carried out and luciferase activity determined.

cERE probe = experiment: EMSA (gel mobility shift), ER binding to cERE probe; details: CHO-S extracts
Protocol: (§1) CHO—S cells (Life-Technologies; Grand Island, N.Y.) were transfected using Lipofectamine 2000 (Life-Technologies). Transfection was performed according to the manufacturer's instructions, except cells were grown in 6-well plates coated with 1 ml of 0.1 mg/mL polylysine for 24 hours at 37° C. prior to transfection. One μg of CMV-hERα and 3 μg of pTZ18U carrier DNA were used for each well; DNA:Lipofectamine 2000 was 1:3. 17β-estradiol was added to a final concentration of 10 nM 1 hour before harvest. Whole cell extracts were prepared as described (Zhang et al., 1996) with a modified extraction buffer (50 m-M Tris-HCl, pH 7.5, 1.5 mM EDTA, 10 mM Na2MoO4, 0.5 M NaCl, 10% glycerol, 0.5 mM β-mercaptoethanol, 50 μg/ml leupeptin, 1 μg/ml pepstatin and 5 μg/ml aprotinin).
(§2) Gel mobility shift assays were performed essentially as described [Zhang, 1999 #38]. Each 20 μl reaction contained 50 mM KCl, 15 mM Tris-HCl (pH 7.9), 4 mM dithiothreitol, 0.2 mM EDTA, 3 μg of poly(dIdC) and 10% glycerol; bovine serum albumin (BSA) was added to each sample for a total of 10 μg of protein. Free probe and protein-DNA complexes were quantitated using a phosphor imager and ImageQuant 5.0 (Molecular Dynamics, Inc., Sunnyvale, Calif.). The sequence of one DNA strand of each of the three probes (SEQ ID NOS:61–63) used for the gel mobility shift assays are presented in Table 31. The ERE or PAL sequences are underlined.
To compare binding of wild type hERα and the ER mutants to the EREs, protein titrations were performed. Increasing amounts of extracts containing equivalent levels of wild-type ER or ER mutants were incubated with the cERE. The ER:ERE complexes were then analyzed by EMSA. […] The mutants required 1.5–2.4-fold more extract to bind 50% of the cERE probe than wild-type ER. […] Even at the highest level of extract (8 μg), wild-type ER shifted only ˜15% of the pS2 probe.
FIG. 1 (Legend) A. Panel (i), Western blots of normalized whole cell extracts of wild type hERα and mutants from transfected CHO-S cells. Lane 1–13: mutants 4, 2, 57.1, 50.1, 15.3, wild type ER, 7.2, 6.2, 4.3, 3.1, 2.1, wild type, and 3M, respectively. Panel (ii), The three ERE sequences used in these studies. The nucleotides that differ from those in the consensus ERE (cERE) are underlined. Nucleotides in lower case lettering are less well conserved or not conserved in EREs. […] The data were calculated by PhosphorImager analysis. (B) The labeled cERE probe was incubated with 0.5, 1.0, 2.0 and 4.0 μg of whole cell extracts of wild type hERα, or extracts containing the mutant ERs normalized to contain the same amount of ER as the wild-type ER extract at each point. (C) Gel shift assays using the labeled pS2 ERE probes and increasing amounts (1.0, 2.0, 4.0 and 8.0 μg) of the whole cell extracts containing wild-type ER and each of the ER mutants. (D) Gel shift assays using the labeled pS2 palindrome ERE probe. The ER extract contained 2.0, 4.0 and 8.0 μg of whole cell extract (panel (i)), and 15 μg (panel (ii)). Lanes 1–7 (panel (ii)) represent wild type hERα, and mutants 3M, 3.1, 4.3, 6.2, 2 and 4, respectively. D (iii) contains a graph of the percentage of the labeled pS2 PAL probe shifted calculated by PhosphorImager analysis of the data in D(i) and D(ii).

[2] = system: ATL2/pS2 ERE-LUC reporter in HepG2 cells; experiment: MOX-dependent transactivation by wild-type and mutant ERs, transient transfection, luciferase reporter; assay type: cell-based, human; details: 10 nM MOX
[3] = system: putative ERE in the Bcl2 gene; experiment: EMSA, ER binding to putative ERE in the Bcl2 gene; details: summary statement
Protocol: as §2
It therefore seemed possible that binding of wild-type ER to the pS2 ERE is based on strong binding of one monomer of the ER dimer to the cERE half site (aGGTCA; SEQ ID NO: 65) and weak non-specific interaction of the other ER monomer with the sequence at the other half site. To test this possibility, binding of wild-type and the ER mutants to a putative ERE in the Bcl2 gene was examined. Like pS2, Bcl2 contains a cERE half site, but also contains a second, different half site that deviates from the consensus sequence by one nucleotide.

[4] = system: ATL2/PAL-LUC reporter in HepG2 cells; experiment: MOX-dependent transactivation by wild-type and mutant ERs, transient transfection, luciferase reporter; assay type: cell-based, human; details: 10 nM MOX
pS2 PAL probe = experiment: EMSA (gel mobility shift), ER binding to pS2 PAL probe
Protocol: as §1
(§3) Gel mobility shift assays were performed essentially as described [Zhang, 1999 #38]. […] Free probe and protein-DNA complexes were quantitated using a phosphor imager and ImageQuant 5.0 (Molecular Dynamics, Inc., Sunnyvale, Calif.). […]
(§4) FIG. 1 (Legend) A. Panel (i), Western blots of normalized whole cell extracts of wild type hERα and mutants from transfected CHO-S cells. […] The data were calculated by PhosphorImager analysis. […] D (iii) contains a graph of the percentage of the labeled pS2 PAL probe shifted calculated by PhosphorImager analysis of the data in D(i) and D(ii).

pS2 ERE probe = experiment: EMSA (gel mobility shift), ER binding to pS2 ERE probe
Protocol: as §1, with “Whole cell extracts were prepared as described (Zhang et al., 1996) with a modified extraction buffer (50 m-M Tris-HCl, pH 7.5, 1.5 mM EDTA, 10 mM Na2MoO4, 0.5 M NaCl, 10% glycerol, 0.5 mM β-mercaptoethanol, 50 μg/ml leupeptin, 1 μg/ml pepstatin and 5 μg/ml aprotinin).” left out
as §3
To compare binding of wild type hERα and the ER mutants to the EREs, protein titrations were performed. […] The ER:ERE complexes were then analyzed by EMSA. […]
as §4

| binding to cERE and pS2 ERE DNA probes (cERE probe) | Compound | activation of transcription from native pS2 ERE compared with wild-type ER [2] | further results |
| --- | --- | --- | --- |
|  | C[C@]12CC[C@@H]3c4ccc(O)cc4C[C@@H](CCCCCCCCC[S+]([O-])CCCC(F)(F)C(F)(F)F)[C@H]3[C@@H]1CC[C@@H]2O (some centres unmarked) [ICI 182,780] |  | effect on basal transactivation by the fusion proteins [1]: decreased |
|  | C#C[C@]1(O)CC[C@H]2[C@@H]3CCc4cc(O)ccc4[C@H]3[C@@H](OC)C[C@@]21C [MOX, moxestrol] |  | transactivation level on two copies of pS2 PAL (wild type hERα; ATL2/PAL-LUC, 10 nM ligand): undetectable; MOX-dependent increase in luciferase activity (wild type hERα; 0.75 ng expression plasmid): 32 fold; MOX-dependent increase in luciferase activity (wild type hERα; 2.5 ng expression plasmid): 41 fold |
| little or no binding | ER2.1: ERα DNA binding domain mutant, SEQ ID NO:16 (WSCKAFFKRSIAGGNDY; Mutant DBD of ER) |  |  |
|  | ER2: ERα DNA binding domain mutant, SEQ ID NO:12 (WGCKAFFKRSIARHNDY; Mutant DBD of ER) | less effective |  |
|  | ER3.1: ERα DNA binding domain mutant, SEQ ID NO:6 (WGCKAFFKRSINRHNSY; Mutant DBD of ER) | less effective |  |
|  | ER3M: ERα DNA binding domain mutant, residues 203–219 as SEQ ID NO:4 (WGCKAFFKRSIAGGNDY; Mutant DBD of ER) | more effectively than wild-type ER | binding to, or transcription from, the Bcl2 and TGF α1 EREs [3]: no detectable binding to, or transcription from |
|  | ER4.3: ERα DNA binding domain mutant, SEQ ID NO:8 (WGCKAFFKRSIVRPTDY; Mutant DBD of ER) | more effectively than wild-type ER | binding to, or transcription from, the Bcl2 and TGF α1 EREs [3]: no detectable binding to, or transcription from |
|  | ER4: ERα DNA binding domain mutant, SEQ ID NO:14 (WGCKAFFKRSIARGNDY; Mutant DBD of ER) | more effectively than wild-type ER |  |
|  | ER6.2: ERα DNA binding domain mutant, SEQ ID NO:10 (EGCKAFFKRSIARRLDY; Mutant DBD of ER) | less effective | ability to activate transcription of the pS2 PAL reporter [4]: little or no ability to activate transcription; binding to pS2 PAL (pS2 PAL probe): negligible binding; change in binding to pS2 ERE probe compared with cERE (pS2 ERE probe): dramatic decrease in binding |
| little or no binding | ER7.2: ERα DNA binding domain mutant, SEQ ID NO:18 (EGCKAFFKRSIQRHPRY; Mutant DBD of ER) |  |  |
| little or no binding | ER15.3: ERα DNA binding domain mutant, SEQ ID NO:20 (ESCKAFFKRSIGGHNYY; Mutant DBD of ER) |  |  |
| little or no binding | ER50.1: ERα DNA binding domain mutant, SEQ ID NO:22 (WSCKGFFKRSKQGHNDY; Mutant DBD of ER) |  |  |
| little or no binding | ER57.1: ERα DNA binding domain mutant, SEQ ID NO:24 (WSCKGFFKRSIKGVPTY; Mutant DBD of ER) |  |  |
